{"source": "patent US9751919B2", "about": "“Antimicrobial compositions comprising a hyaluronic acid binding peptide and a β-lactam antibiotic” (priority 2012, dated 2017)", "key": {"[1]": {"tested_on": "VISA", "assay": "MIC (CLSI broth dilution), agent alone", "assay_type": "cell-based, Staphylococcus aureus", "parameters": "unit: µg/mL", "procedure": "(§1) VISA (strains 92, 95 and 96), VRSA (strains 105 and 106) and E. coli (strain 69717) isolates were also tested. One MSSA was used as a control. All MICs were assessed using CLSI guidelines. Also assessed was the activity of cefazolin, ceftriazone, meropenem, and a piperacillin/tazobactam combination antibiotic. Minimum inhibitory concentration (MIC) is the lowest concentration of an antimicrobial that will inhibit the visible growth of a microorganism after incubation.\n(§2) Antimicrobial Susceptibility Testing: A custom designed panel of antimicrobials was created. The panel included: PEP35, penicillin, piperacillin/tazobactam, cefazolin, ceftriaxone, meropenem, clarithromycin, clindamycin, gentamicin, amikacin, vancomycin, ciprofloxacin, levofloxacin, moxifloxacin, linezolid, trimethoprim/sulfamethoxazole and doxycycline. These agents were obtained as laboratory grade powders from their respective manufacturers. Stock solutions were prepared and dilutions made as described by the Clinical Laboratory Standards Institute (2005 CLSI). Following two subcultures from frozen stock the MICs of the antimicrobial agents for the isolates were determined by the CLSI 2005 approved broth macrodilution method. Briefly, test tubes containing doubling antibiotic dilutions (2 ml per tube) of cation adjusted Mueller-Hinton broth (eg. for Enterobacteriaceae) with or without lysed horse blood (2-5% V/V) [eg. for S. pneumoniae] were inoculated to achieve a final concentration of approximately 5×10^5 CFU/ml and incubated in ambient air for 24 hours prior to reading. Colony counts were performed periodically to confirm inocula. Quality control was performed every two weeks using a variety of ATCC QC organisms including; S. aureus 29213, E. faecalis 29212, E. coli 25922 and P. aeruginosa 27853. For all antimicrobials as well as PEP35, CLSI criteria were used.\n(§3) One MSSA was used as a control. All MICs were assessed using CLSI guidelines."}, "[2]": {"tested_on": "VRSA", "assay": "MIC (CLSI broth dilution), agent alone", "assay_type": "cell-based, Staphylococcus aureus", "parameters": "unit not given beside the values", "procedure": "as §1, §2, §3"}, "[3]": {"tested_on": "E. coli", "assay": "MIC (CLSI broth dilution), agent alone", "assay_type": "cell-based, Escherichia coli", "conditions": "E. coli 69716; agent alone", "procedure": "as §1, §2\n(§4) One MS SA and ATCC reference strains were used as controls. All MICs were assessed using CLSI guidelines."}, "[4]": {"tested_on": "HA-MRSA", "assay": "MIC (CLSI broth dilution), agent alone", "assay_type": "cell-based, Staphylococcus aureus", "conditions": "agent alone", "procedure": "as §1\nas §2, with “The panel included: PEP35, penicillin, piperacillin/tazobactam, cefazolin, ceftriaxone, meropenem, clarithromycin, clindamycin, gentamicin, amikacin, vancomycin, ciprofloxacin, levofloxacin, moxifloxacin, linezolid, trimethoprim/sulfamethoxazole and doxycycline.” left out, “27853.” for “27853. For all antimicrobials as well as PEP35, CLSI criteria were used.”\nas §3, §4"}, "[5]": {"tested_on": "CA-MRSA", "assay": "MIC (CLSI broth dilution), agent alone", "assay_type": "cell-based, Staphylococcus aureus", "conditions": "agent alone, in µg/mL", "procedure": "as §1\nas §2, with “The panel included: PEP35, penicillin, piperacillin/tazobactam, cefazolin, ceftriaxone, meropenem, clarithromycin, clindamycin, gentamicin, amikacin, vancomycin, ciprofloxacin, levofloxacin, moxifloxacin, linezolid, trimethoprim/sulfamethoxazole and doxycycline.” left out, “27853.” for “27853. For all antimicrobials as well as PEP35, CLSI criteria were used.”\nas §3, §4"}, "[6]": {"tested_on": "MRSA, VISA, VRSA and E. coli", "assay": "Checkerboard assay, panel statement", "assay_type": "cell-based", "conditions": "with β-lactams versus MRSA, VISA, VRSA and E. coli", "procedure": "(§5) Checkerboard assays were carried out as described by Bonapace et al.\n(§6) Diagnostic Microbiology and Infectious Diseases 2002; 44:363-366. In brief, checkerboard assays were performed in 96 well microtitre trays using an 8-by-8 well configuration. […] 96-well custom designed microtitre plates contained 100 ul/well of cation adjusted Mueller-Hinton broth (eg. for Enterobacteriaceae) with or without lysed horse blood (2-5% V/V) [eg. for S. pneumoniae] and were inoculated to achieve a final concentration of approximately 5×10^5 CFU/ml and incubated in ambient air for 24 hours prior to reading. Colony counts were performed periodically to confirm inocula. Quality control was performed every two weeks using a variety of ATCC QC organisms including; S. pneumoniae 49619, S. aureus 29213, E. faecalis 29212, E. coli 25922 and P. aeruginosa 27853. […] All peptides were assessed for synergy with β-lactams and vancomycin. For all antimicrobials as well as the peptides, CLSI criteria were used.\n(§7) The fractional inhibitory concentration index (FIC index) was used to interpret synergy, antagonism or additivity/indifference. FIC index=FIC of drug A+FIC of drug B where:\n(§8) The FIC of drug A and drug B was calculated as follows, FIC drug A=MIC of drug A in combination/MIC of drug A alone and FIC of drug B=MIC of drug B in combination/MIC of drug B alone. Synergy was defined as FIC index ≦0.5, additivity/indifference defined as a FIC between 0.5 and 4 and antagonism defined as an FIC index >4.\nThe fractional inhibitory concentration index (FIC index) was used to interpret synergy, antagonism or additivity/indifference. FIC index=FIC of drug A+FIC of drug B where the FIC of drug A and drug B was calculated as follows, FIC drug A=MIC of drug A in combination/MIC of drug A alone and FIC of drug B=MIC of drug B in combination/MIC of drug B alone. Synergy was defined as FIC index ≦0.5, additivity/indifference defined as an FIC of between 0.5 and 4 and antagonism defined as an FIC index >4."}, "[7]": {"tested_on": "MRSA, VISA, VRSA and E. coli", "assay": "MIC, agent alone, panel statement", "assay_type": "cell-based", "conditions": "versus MRSA, VISA, VRSA and E. coli", "procedure": "as §1, §2"}, "[8]": {"tested_on": "P. aeruginosa", "assay": "Checkerboard assay (FIC index)", "assay_type": "cell-based, Pseudomonas aeruginosa", "conditions": "antibiotic combined with PEP35", "procedure": "(§9) The checkerboard assays were carried out as described by Eliopoulos and Moellering (Chapter 9) in Antibiotic in Laboratory Medicine, Lorian Ed. 1996 as well as Bonapace et al. Diagnostic Microbiology and Infectious Diseases 2002; 44:363-366 and Bonapace et al. Diagnostic Microbiology and Infectious Diseases 2000; 38:43-50. In brief, checkerboard assays were performed in 96 well microtitre trays using an 8-by-8 well configuration. […] 96-well custom designed microtitre plates contained 100 ul/well of cation adjusted Mueller-Hinton broth (eg. for Enterobacteriaceae) with or without lysed horse blood (2-5% V/V) [eg. for S. pneumoniae] and were inoculated to achieve a final concentration of approximately 5×10^5 CFU/ml and incubated in ambient air for 24 hours prior to reading. Colony counts were performed periodically to confirm inocula. Quality control was performed every two weeks using a variety of ATCC QC organisms including; S. pneumoniae 49619, S. aureus 29213, E. faecalis 29212, E. coli 25922 and P. aeruginosa 27853. For all antimicrobials as well as PEP35, CLSI criteria was used.\nas §7\n(§10) The FIC of drug A and drug B is calculated as follows, FIC drug A=MIC of drug A in combination/MIC of drug A alone and FIC of drug B=MIC of drug B in combination/MIC of drug B alone. Synergy is defined as FIC index ≦0.5, additivity/indifference FIC >0.5-4 and antagonism FIC index >4.\n(§11) Antimicrobials used included PEP35, cefazolin, ceftriaxone, vancomycin, linezolid, tigecycline and daptomycin versus Gram-positive cocci and PEP35, gentamicin, levofloxacin, piperacillin/tazobactam, meropenem and colistin (Polymyxin E) versus Gram-negative bacilli. These agents were obtained as laboratory grade powders from their respective manufacturers. Stock solutions were prepared and dilutions made as described by the Clinical Laboratory Standards Institute (2005 CLSI).\n(§12) Organisms included Gram-positive cocci (2 strains of each): Methicillin-susceptible Staphylococcus aureus (MSSA), community-associated (CA) and healthcare-associated (HA) methicillin-resistant Staphylococcus aureus (MRSA), vancomycin-intermediate Staphylococcus aureus (VISA), vancomycin-resistant Staphylococcus aureus (VRSA), methicillin-resistant Staphylococcus epidermidis (MRSE), Streptococcus pyogenes, Streptococcus agalactiae, Streptococcus pneumoniae, Enterococcus faecalis, Enterococcus faecium and vancomycin-resistant enterococcus (VRE). Gram-negative bacilli tested (2 strains of each) included: E. coli, Pseudomonas aeruginosa, Klebsiella pneumoniae, K. oxytoca, Enterobacter cloacae, P. mirabilis and Stenotrophomonas maltophilia. MIC testing, following two subcultures from frozen stock were determined by the CLSI 2005 approved broth microdilution method."}, "[9]": {"tested_on": "E. coli", "assay": "Checkerboard assay (FIC index)", "assay_type": "cell-based, Escherichia coli", "conditions": "antibiotic combined with PEP35", "procedure": "as §5, §6, §7, §8, §9, §10, §11\nOrganisms included Gram-positive cocci (2 strains of each): Methicillin-susceptible Staphylococcus aureus (MSSA), community-associated (CA) and healthcare-associated (HA) methicillin-resistant Staphylococcus aureus (MRSA), vancomycin-intermediate Staphylococcus aureus (VISA), vancomycin-resistant Staphylococcus aureus (VRSA), methicillin-resistant Staphylococcus epidermidis (MRSE), Streptococcus pyogenes, Streptococcus agalactiae, Streptococcus pneumoniae, Enterococcus faecalis, Enterococcus faecium and vancomycin-resistant enterococcus (VRE). […]"}, "[10]": {"tested_on": "P. mirabilis", "assay": "Checkerboard assay (FIC index)", "assay_type": "cell-based, Proteus mirabilis", "conditions": "antibiotic combined with PEP35", "procedure": "as §9, §7, §10, §11, §12"}, "[11]": {"tested_on": "K. pneumoniae", "assay": "Checkerboard assay (FIC index)", "assay_type": "cell-based, Klebsiella pneumoniae", "conditions": "antibiotic combined with PEP35", "procedure": "as §9, §7, §10, §11, §12"}, "[12]": {"tested_on": "S. maltophilia", "assay": "Checkerboard assay (FIC index)", "assay_type": "cell-based, Stenotrophomonas maltophilia", "conditions": "antibiotic combined with PEP35", "procedure": "as §9, §7, §10, §11, §12"}, "[13]": {"tested_on": "K. oxytoca", "assay": "Checkerboard assay (FIC index)", "assay_type": "cell-based, Klebsiella oxytoca", "conditions": "antibiotic combined with PEP35", "procedure": "as §9, §7, §10, §11, §12"}, "[14]": {"tested_on": "E. cloacae", "assay": "Checkerboard assay (FIC index)", "assay_type": "cell-based, Enterobacter cloacae", "conditions": "antibiotic combined with PEP35", "procedure": "as §9, §7, §10, §11, §12"}}, "note": "“And” between values parts separate entries of the source, which are not always exact repeats. Equal entries are not always repeated. “Also recorded” adds a separate entry of the source. Marks after values point to notes of the source that are not given here."}
{"substance": "GAHWQFNALTVRGGGS (Laboratory designed HA inhibitor peptide) [PEP-52]", "values": [{"measurement": "MIC", "setting": "[1]; VISA 92, in µg/mL", "result": "> 512 and 1024"}, {"measurement": "MIC", "setting": "[1]; VISA 95, in µg/mL", "result": "> 512 and 1024"}, {"measurement": "MIC", "setting": "[1]; VISA 96, in µg/mL", "result": "> 512 and 1024"}, {"measurement": "MIC", "setting": "[2]; VRSA 105", "result": "> 512 and > 1024"}, {"measurement": "MIC", "setting": "[2]; VRSA 106", "result": "> 512 and > 1024"}, {"measurement": "MIC", "setting": "[3]", "result": "> 512 and > 1024"}, {"measurement": "MIC", "setting": "[4]; HA-MRSA 70798 (USA100/800)", "result": "> 512 and > 1024"}, {"measurement": "MIC", "setting": "[4]; HA-MRSA 77090 (USA100/800), in µg/mL", "result": "> 512 and 1024"}, {"measurement": "MIC", "setting": "[5]; CA-MRSA 69615 (USA400)", "result": "> 512 and 1024"}, {"measurement": "MIC", "setting": "[5]; CA-MRSA 70857 (USA400)", "result": "> 512 and 1024"}, {"measurement": "synergistic activity (in words)", "setting": "[6]", "result": "no synergistic activity"}, {"measurement": "activity (in words)", "setting": "[7]", "result": "no activity; also recorded: not active"}]}
{"substance": "gentamicin", "values": [{"measurement": "Avg ΣFIC (range)", "setting": "[8]; P. aeruginosa 70849", "result": "1.11 (1.03-1.25)"}, {"measurement": "Avg ΣFIC (range)", "setting": "[8]; P. aeruginosa 71841", "result": "1.05 (0.75-1.25)"}, {"measurement": "Avg ΣFIC (range)", "setting": "[9]; E. coli 69716", "result": "1.4 (1.06-2.12)"}, {"measurement": "Avg ΣFIC (range)", "setting": "[9]; E. coli 70752", "result": "1.05 (0.75-1.25)"}, {"measurement": "Avg ΣFIC (range)", "setting": "[10]; P. mirabilis 80267", "result": ">1*"}, {"measurement": "Avg ΣFIC (range)", "setting": "[10]; P. mirabilis 81569", "result": ">1*"}, {"measurement": "Avg ΣFIC (range)", "setting": "[11]; K. pneumoniae 70508", "result": "1.13 (1.0-1.25)"}, {"measurement": "Avg ΣFIC (range)", "setting": "[11]; K. pneumoniae 77081", "result": "0.89 (0.56-1.25)"}, {"measurement": "Avg ΣFIC (range)", "setting": "[12]; S. maltophilia 73062", "result": "1.4 (0.62-2.25)"}, {"measurement": "Avg ΣFIC (range)", "setting": "[12]; S. maltophilia 77424", "result": "1.99 (1.0-4.25) and 1.98 (1.06-4.25)"}, {"measurement": "Avg ΣFIC (range)", "setting": "[13]; K. oxytoca 75316", "result": "1.24 (0.75-2.12)"}, {"measurement": "Avg ΣFIC (range)", "setting": "[13]; K. oxytoca 76874", "result": "1.10 (0.75-2.06)"}, {"measurement": "Avg ΣFIC (range)", "setting": "[14]; E. cloacae 80194", "result": "1.4 (0.5-2.12)"}, {"measurement": "Avg ΣFIC (range)", "setting": "[14]; E. cloacae 83128", "result": "1.05 (0.75-1.25)"}]}
